# Values of other authors, collected in patent US20040248932A1, “Use of aryl- and heteroaryl-substituted tetrahydroisoquinolines in the treatment of chronic and neuropathic pain, migraine headaches, and urge, stress and mixed urinary incontinence” (priority 2002, published 2004).
# Conditions: nocturnal enuresis, following treatment
compound,measurement,value
"CN(C)CCCN1c2ccccc2CCc2ccccc21 [imipramine, Imipramine]",further patients in whom improvements can be seen,15-20%
same,patients in whom enuresis can be cured,over 50%
